Data as given in publication PMC5196007 (Journal of pharmaceutical and biomedical analysis, 2016).
Like-named read-outs stand apart in the source and are kept apart here.

How the values were obtained:
[1] = Stability of analytes in whole blood samples; assay type: in vitro ADME, rat; details: n = 6
[2] = Pharmacokinetic study with co-administration of cocaine and alcohol in rats; assay type: in vivo, Male Sprague–Darley rats; details: 60 mg/kg cocaine IP, 30 min after 1 g/kg alcohol or saline IP, both groups
[3] = tested on: CE-1; details: with alcohol co-administration, cited from earlier work
[4] = tested on: butyrylcholinesterase (BChE) and liver carboxyesterase-2 (CE-2); details: in humans; cited from earlier work
[5] = Bench top (4 hours, room temperature), high concentration 190–320 ng/ml (1 µM)
[6] = Bench top (4 hours, room temperature), low concentration 1.9–3.2 ng/ml (0.01 µM)
[7] = Bench top (4 hours, room temperature), medium concentration 95–160 ng/ml (0.5 µM)
[8] = Freeze-thaw (4 cycles), high concentration 190–320 ng/ml (1 µM)
[9] = Freeze-thaw (4 cycles), low concentration 1.9–3.2 ng/ml (0.01 µM)
[10] = Freeze-thaw (4 cycles), medium concentration 95–160 ng/ml (0.5 µM)
[11] = Long-term (−70°C, 4 months), high concentration 190–320 ng/ml (1 µM)
[12] = Long-term (−70°C, 4 months), low concentration 1.9–3.2 ng/ml (0.01 µM)
[13] = Long-term (−70°C, 4 months), medium concentration 95–160 ng/ml (0.5 µM)

Compound	Stability Bias (%) [1, 5] [%]	Stability Bias (%) [1, 6] [%]	Stability Bias (%) [1, 7] [%]	Stability Bias (%) [1, 8] [%]	Stability Bias (%) [1, 9] [%]	Stability Bias (%) [1, 10] [%]	Stability Bias (%) [1, 11] [%]	Stability Bias (%) [1, 12] [%]	Stability Bias (%) [1, 13] [%]	highest blood concentration [2]	time of highest blood concentration after the injection of cocaine [2] [min]	fraction of cocaine converted to cocaethylene through transesterification ([3]; intravenous cocaine)	fraction of cocaine converted to cocaethylene through transesterification ([3]; oral cocaine)	fraction of cocaine converted to cocaethylene through transesterification ([3]; smoked cocaine)	fraction of cocaine hydrolyzed to ecgonine methyl ester (EME) [4]
CCOC(=O)[C@H]1[C@@H](O)C[C@@H]2CC[C@H]1N2 [NEEE, norecgonine ethyl ester]	3.7	1.4	2.4	6.5	1.2	3.3	−11.9	−1.3	−0.2	–	–	–	–	–	–
COC(=O)[C@H]1[C@@H](O)C[C@@H]2CC[C@H]1N2 [NEME, norecgonine methyl ester]	−2.2	−14.3	−1.5	0.1	−12.8	−5.4	−8.7	−13.0	−1.7	–	–	–	–	–	–
COC(=O)[C@H]1[C@@H](OC(=O)c2ccccc2)C[C@@H]2CC[C@H]1N2C [Cocaine]	−6.7	2.3	0.3	−4.7	2.8	−0.7	−3.1	−0.4	3.1	~ 2400 ng/ml	20	~ 24%	~ 34%	~ 18%	approximately 40%
COC(=O)[C@@H]1[C@H]2CC[C@@H](C[C@@H]1O)N2C [EME, ecgonine methyl ester]	0.3	−9.6	5.9	4.0	2.1	4.2	3.5	−3.1	6.3	–	–	–	–	–	–
CN1[C@H]2CC[C@@H]1[C@@H](C(=O)O)[C@@H](OC(=O)c1ccccc1)C2 [BE, benzoylecgonine]	1.7	−0.5	0.7	3.4	−0.9	5.5	3.8	−1.4	2.2	–	–	–	–	–	–
COC(=O)[C@H]1[C@@H](OC(=O)c2ccccc2)C[C@@H]2CC[C@H]1N2 [Norcocaine, norcocaine]	0.6	−1.1	3.5	−1.2	−1.0	−0.2	−1.4	−2.9	2.2	–	–	–	–	–	–
CCOC(=O)[C@@H]1C2CCC(C[C@@H]1OC(=O)c1ccccc1)N2C (stereo partly drawn) [Cocaethylene, cocaethylene]	0.2	1.7	−2.1	−4.1	0.7	−3.7	−0.6	3.7	−1.8	–	–	–	–	–	–
CCOC(=O)[C@@H]1[C@H]2CC[C@@H](C[C@@H]1O)N2C [EEE, ecgonine ethyl ester]	6.8	1.2	−4.4	9.4	−3.2	−9.3	−5.2	−2.2	−5.2	–	–	–	–	–	–
CCOC(=O)[C@H]1[C@@H](OC(=O)c2ccccc2)C[C@@H]2CC[C@H]1N2 [Norcocaethylene, norcocaethylene]	−2.2	−0.2	−0.9	−6.4	0.1	−4.4	2.8	−1.0	−1.3	–	–	–	–	–	–
